From patent US20050048508A1, “Trehalose receptor and method for detecting trehalose with the same” (KABUSHIKI KAISHA HAYASHIBARA SEIBUTSU KAGAKU KENKYUJO, priority 2002, published 2005)

Biological target: T1, T1R1 with G protein α-subunits (α15 and α16/Z chimeric protein) (Mus musculus, UniProt Q99PG6)
T1 construct: expressed in transfected cells; host or cells: 293 cells, RCB 1637 (human embryonic kidney)
T1 sequence (Q99PG6 20-842 L120P/N244D/D281A/N309Y/P311T/S314P/H418Y): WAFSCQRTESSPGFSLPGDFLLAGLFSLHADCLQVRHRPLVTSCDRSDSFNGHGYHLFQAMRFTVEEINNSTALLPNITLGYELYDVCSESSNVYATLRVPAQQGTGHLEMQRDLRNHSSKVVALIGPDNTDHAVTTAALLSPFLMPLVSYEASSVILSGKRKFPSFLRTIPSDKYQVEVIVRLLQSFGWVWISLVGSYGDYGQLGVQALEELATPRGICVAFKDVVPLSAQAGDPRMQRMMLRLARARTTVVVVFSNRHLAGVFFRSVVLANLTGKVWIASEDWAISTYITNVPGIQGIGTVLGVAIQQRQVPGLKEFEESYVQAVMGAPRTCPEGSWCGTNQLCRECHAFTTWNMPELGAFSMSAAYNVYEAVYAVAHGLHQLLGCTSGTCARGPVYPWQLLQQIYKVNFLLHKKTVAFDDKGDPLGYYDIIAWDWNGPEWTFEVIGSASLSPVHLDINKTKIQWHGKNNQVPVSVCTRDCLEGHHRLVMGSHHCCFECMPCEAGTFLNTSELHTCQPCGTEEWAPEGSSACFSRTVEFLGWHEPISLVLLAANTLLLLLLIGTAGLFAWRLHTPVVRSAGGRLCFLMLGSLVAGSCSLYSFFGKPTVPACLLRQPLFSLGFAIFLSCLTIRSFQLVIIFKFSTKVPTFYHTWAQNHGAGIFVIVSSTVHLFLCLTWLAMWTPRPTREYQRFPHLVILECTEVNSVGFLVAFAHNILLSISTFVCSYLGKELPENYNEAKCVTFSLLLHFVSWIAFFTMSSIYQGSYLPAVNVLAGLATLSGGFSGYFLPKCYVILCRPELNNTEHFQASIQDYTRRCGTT
Experiment: Intracellular calcium ion assay, 293 cells coexpressing G protein α-subunits and T1R1
Type: cell-based
Conditions: 293 cells: T1R1 + G protein α-subunits; 0.67 ml of 1 M saccharide solution added to 2 ml cell suspension; FLUO-4 AM
Protocol: The coexpression vector for the G protein α-subunit α15 and the G protein α16/Z chimeric protein (hereinafter designated as “G protein α-subunits”) obtained in Example 1-3 was gene transferred to 293 cells, RCB 1637, a human embryonic kidney cell line, available from the Riken Bioresource Center, Ibaraki, Japan, by conventional lipofection. The gene transferred cells were suspended in Dulbecco's Modified Eagle's Medium (D-MEM) supplemented with 1 mg/L of “PUROMYCIN”, a trade mane of puromycin commercialized by Edge Biosystems, MD, USA, and 10% (v/v) of fetal calf serum to give a cell density of 2×10^6 cells/ml and cultured in a plastic petri dish for cell culture. […]
The captioned reactivity test was conducted according to a conventional intracellular calcium ion assay: 293 Cells prepared in Example 3, capable of coexpressing the G protein α-subunits and the sweet taste receptor(s), were cultured in a plastic petri dish for cell culture until reaching its confluent phase. […] Two milliliters of the resultant cell suspension was injected into a glass cuvette, commercialized by Hitachi, Ltd., Tokyo, Japan, and analyzed on “HITACHI 650-40”, a fluorescence spectrophotometer commercialized by Hitachi, Ltd., Tokyo, Japan. […]

| SMILES | Influx of calcium ion |
| --- | --- |
| OC[C@H]1O[C@@](CO)(O[C@H]2O[C@H](CO)[C@@H](O)[C@H](O)[C@H]2O)[C@@H](O)[C@@H]1O [Sucrose, reference compound] | Negative |
| OC[C@H]1O[C@H](O[C@H]2O[C@H](CO)[C@@H](O)[C@H](O)[C@H]2O)[C@H](O)[C@@H](O)[C@@H]1O [Trehalose] | Negative |
